From patent US7785607B2 (priority 2004, dated 2010)
Like-named read-outs stand apart in the source and are kept apart here.

System: IFN-gamma-producing T lymphocytes (PBMC)
Format: cell-based, human
Details: for SFCs/2.5 × 10^5 cells: μg/mL: proteins 2 each, ESAT-6 pool 50, CFP-10 pool 8, both pools 58, PHA 1, PPD 10

phytohemagglutinin [PHA]
Absolute value (spots in control wells subtracted): 237 | response scored positive or negative: positive | SFCs/2.5 × 10^5 cells ([…], mean of duplicate wells): 240 SFCs/2.5 × 10^5 cells | Absolute value (spots in control wells subtracted) (sample 1b latent tuberculosis): 236 | SFCs/2.5 × 10^5 cells (sample 1b latent tuberculosis, mean of duplicate wells): 240 SFCs/2.5 × 10^5 cells | response scored positive or negative (sample 1e anergic subject): negative | Absolute value (spots in control wells subtracted) (sample 1e anergy): 6 | SFCs/2.5 × 10^5 cells (sample 1e anergy): 11 SFCs/2.5 × 10^5 cells | response scored positive or negative (sample 1d healthy control): positive
